Measured values published in patent US20230022157A1 (Achillion Pharmaceuticals, Inc., priority 2018, published 2023).
Read-outs that look alike come from different tables or passages of the source.

Molecular target: T1, Human Factor D (Homo sapiens, UniProt P00746)
T1 construct: purified from human serum; purchased Complement Technology, Inc; host or cells: human serum (natural protein, not recombinant)
Assay: Human Factor D Assay
Type: biochemical
Conditions: Human Factor D 80 nM, substrate Z-L-Lys-SBzl, read-out: IC50 (Stars)
In short: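 Serum-purified human factor D (80 nM final) preincubated 5 min at room temperature with test compound in 50 mM Tris, 1M NaCl, pH 7.5. Z-L-Lys-SBzl substrate and DTNB then added, each at 100 μM final. IC50 from nonlinear regression of reaction rate against compound concentration.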

T1 sequence (P00746 26-253): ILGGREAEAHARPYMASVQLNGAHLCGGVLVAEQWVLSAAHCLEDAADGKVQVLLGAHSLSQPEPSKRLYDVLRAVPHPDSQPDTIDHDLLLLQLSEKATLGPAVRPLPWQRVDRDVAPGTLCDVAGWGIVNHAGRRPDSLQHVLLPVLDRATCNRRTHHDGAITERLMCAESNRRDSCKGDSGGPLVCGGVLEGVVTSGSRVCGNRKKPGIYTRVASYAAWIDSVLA

| SMILES | IC50 (Table 2) | IC50 (assay of Example 3) |
| --- | --- | --- |
| COc1cc(Br)nc(NC(=O)[C@@H]2C[C@@]3(C)C[C@H]3N2C(=O)Cn2nc(C(N)=O)c3cc(-c4cnc(C)nc4)nc(C)c32)c1 [Compound 113, 1-(2-((1R,3S,5R)-3-((6-bromo-4-methoxypyridin-2-yl)carbamoyl)-5-methyl-2-azabicyclo[3.1.0]hexan-2-yl)-2-oxoethyl)-7-methyl-5-(2-methylpyrimidin-5-yl)-1H-pyrazolo[3,4-c]pyridine-3-carboxamide] | < 1 µM | – |
| CC(=O)c1nn(CC(=O)N2[C@H](C(=O)N[C@@H](C)CCc3ccccc3)C[C@@]3(C)C[C@@H]23)c2ccc(-c3cnc(C)nc3)cc12 [Compound 12, (1R,3S,5R)-2-(2-(3-Acetyl-5-(2-methylpyrimidin-5-yl)-1H-indazol-1-yl)acetyl)-5-methyl-N—((S)-4-phenylbutan-2-yl)-2-azabicyclo[3.1.0]hexane-3-carboxamide] | – | < 1 µM |
| CC(=O)c1cn(CC(=O)N2C[C@H]3C[C@H]3[C@H]2C(=O)Nc2nc(Br)c(F)cc2C)c2c(C3CC3)cc(-c3cnc(C)nc3)cc12 [Compound 163] | < 1 µM | – |
| CC(=O)c1nn(CC(=O)N2[C@H](C(=O)NCCc3ccn(C)n3)C[C@@]3(C)C[C@@H]23)c2c(C)cc(-c3cnc(C)nc3)cc12 [Compound 103, (1R,3S,5R)-2-{2-[3-acetyl-7-methyl-5-(2-methylpyrimidin-5-yl)indazol-1-yl]acetyl}-5-methyl-N-[2-(1-methylpyrazol-3-yl)ethyl]-2-azabicyclo[3.1.0]hexane-3-carboxamide] | < 1 µM | – |
| CC(=O)c1nn(CC(=O)N2C[C@H](F)C[C@H]2C(=O)Nc2cccc(Br)n2)c2ccc(-c3ccc(C)nc3)cc12 [Compound 33] | – | < 1 µM |
| CCC[C@@H](C)NC(=O)[C@@H]1C[C@@]2(C)C[C@H]2N1C(=O)Cn1nc(C(C)=O)c2cc(-c3cnc(C)nc3)ccc21 [Compound 16, (1R,3S,5R)-2-(2-(3-Acetyl-5-(2-methylpyrimidin-5-yl)-1H-indazol-1-yl)acetyl)-5-methyl-N—((R)-pentan-2-yl)-2-azabicyclo[3.1.0]hexane-3-carboxamide] | – | < 1 µM |
| CC(=O)c1cn(CC(=O)N2[C@H](C(=O)Nc3nccc(C(F)(F)F)n3)C[C@@]3(C)C[C@@H]23)c2c(C)cc(-c3cnc(C)nc3)cc12 [Compound 235, (1R,3S,5R)-2-(2-(3-acetyl-7-methyl-5-(2-methylpyrimidin-5-yl)-1H-indol-1-yl)acetyl)-5-methyl-N-(4-(trifluoromethyl)pyrimidin-2-yl)-2-azabicyclo[3.1.0]hexane-3-carboxamide] | < 1 µM | – |
| CC(=O)c1nn(CC(=O)N2[C@H](C(=O)Nc3nc(C(F)(F)F)ccc3C)C[C@@]3(C)C[C@@H]23)c2c(C)cc(-c3cnc(C(=O)O)nc3)cc12 [Compound 51, 5-(3-acetyl-7-methyl-1-(2-((1R,3S,5R)-5-methyl-3-((3-methyl-6-(trifluoromethyl)pyridin-2-yl)carbamoyl)-2-azabicyclo[3.1.0]hexan-2-yl)-2-oxoethyl)-1H-indazol-5-yl)pyrimidine-2-carboxylic acid] | < 1 µM | – |
| CC(=O)c1nn(CC(=O)N2[C@H](C(=O)NCCc3ccccc3Cl)C[C@@]3(C)C[C@@H]23)c2c(C)cc(-c3cnc(C)nc3)cc12 [Compound 3, (1R,3S,5R)-2-(2-(3-Acetyl-7-methyl-5-(2-methylpyrimidin-5-yl)-1H-indazol-1-yl)acetyl)-N-(2-chlorophenethyl)-5-methyl-2-azabicyclo[3.1.0]hexane-3-carboxamide] | – | < 1 µM |
| CC(=O)c1nn(CC(=O)N2[C@H](C(=O)NCCc3ccc(F)cc3)C[C@@]3(C)C[C@@H]23)c2c(C)cc(-c3cnc(C)nc3)cc12 [Compound 2, (1R,3S,5R)-2-(2-(3-Acetyl-7-methyl-5-(2-methylpyrimidin-5-yl)-1H-indazol-1-yl)acetyl)-N-(4-fluorophenethyl)-5-methyl-2-azabicyclo[3.1.0]hexane-3-carboxamide] | – | < 1 µM |
| Cc1ncc(-c2cc3c(C(N)=O)nn(CC(=O)N4[C@H](C(=O)Nc5nc(Br)ccc5C5CC5)C[C@@]5(C)C[C@@H]45)c3c(C)n2)cn1 [Compound 112, 1-{2-[3-(6-Bromo-3-cyclopropyl-pyridin-2-ylcarbamoyl)-5-methyl-2-aza-bicyclo[3.1.0]hex-2-yl]-2-oxo-ethyl}-7-methyl-5-(2-methyl-pyrimidin-5-yl)-1H-pyrazolo[3,4-c]pyridine-3-carboxylic acid amide] | < 1 µM | – |
| CC(=O)c1nn(CC(=O)N2[C@H](C(=O)NCCc3cc[nH]n3)C[C@@]3(C)C[C@@H]23)c2c(C)cc(-c3cnc(C)nc3)cc12 [Compound 106, (1R,3S,5R)-2-{2-[3-acetyl-7-methyl-5-(2-methylpyrimidin-5-yl)indazol-1-yl]acetyl}-5-methyl-N-[2-(1H-pyrazol-3-yl)ethyl]-2-azabicyclo[3.1.0]hexane-3-carboxamide] | < 1 µM | – |
| CC(=O)c1nn(CC(=S)N2C[C@H](F)C[C@H]2C(=O)Nc2cccc(Br)n2)c2ccc(-c3cnc(C)nc3)cc12 [Compound 110, 1-{2-[3-Acetyl-5-(2-methyl-pyrimidin-5-yl)-indazol-1-yl]-thioacetyl}-4-fluoro-pyrrolidine-2-carboxylic acid (6-bromo-pyridin-2-yl)-amide] | 1 to 10 µM | – |
| COCCOC[C@@]12C[C@@H](C(=O)Nc3nc(Br)ccc3C)N(C(=O)Cn3nc(C(C)=O)c4cc(-c5cnc(C)nc5)cc(C)c43)[C@@H]1C2 [Compound 107, (1R,3S,5S)-2-(2-(3-acetyl-7-methyl-5-(2-methylpyrimidin-5-yl)-1H-indazol-1-yl)acetyl)-N-(6-bromo-3-methylpyridin-2-yl)-5-((2-methoxyethoxy)methyl)-2-azabicyclo[3.1.0]hexane-3-carboxamide] | < 1 µM | – |
| CC(=O)c1cn(CC(=O)N2[C@H](C(=O)Nc3nc(C(F)(F)F)ccc3C)C[C@@]3(C)C[C@@H]23)c2c(CO)nc(-c3cnc(C)nc3)cc12 [Compound 207, (1R,3S,5R)-2-(2-(3-acetyl-7-(hydroxymethyl)-5-(2-methylpyrimidin-5-yl)-1H-pyrrolo[2,3-c]pyridin-1-yl)acetyl)-5-methyl-N-(3-methyl-6-(trifluoromethyl)pyridin-2-yl)-2-azabicyclo[3.1.0]hexane-3-carboxamide] | < 1 µM | – |

Second part, the compound after the results:

| IC50 (Table 2) | IC50 (assay of Example 3) | SMILES |
| --- | --- | --- |
| < 1 µM | – | CC(=O)c1cn(CC(=O)N2[C@H](C(=O)Nc3nc(Br)c(F)cc3C)C[C@@]3(C)C[C@@H]23)c2c(C)cc(-c3cnc(C(C)O)nc3)cc12 (some centres unmarked) [Compound 158] |
| < 1 µM | – | COCc1ccc(Br)nc1NC(=O)[C@@H]1C[C@@]2(C)C[C@H]2N1C(=O)Cn1cc(C(C)=O)c2cc(-c3cnc(C)nc3)cc(C)c21 [Compound 214, (1R,3S,5R)-2-(2-(3-acetyl-7-methyl-5-(2-methyl-pyrimidin-5-yl)-1H-indol-1-yl)acetyl)-N-(6-bromo-3-(methoxymethyl)pyridin-2-yl)-5-methyl-2-azabicyclo[3.1.0]hexane-3-carboxamide] |
| – | < 1 µM | CC(=O)c1nn(CC(=O)N2[C@H](C(=O)N[C@@H](C)[C@H]3CC3(Cl)Cl)C[C@@]3(C)C[C@@H]23)c2ccc(-c3cnc(C)nc3)cc12 [Compound 26, (1R,3S,5R)-2-(2-(3-acetyl-5-(2-methylpyrimidin-5-yl)-1H-indazol-1-yl)acetyl)-N-((S)-1-((R)-2,2-dichlorocyclo-propyl)ethyl)-5-methyl-2-azabicyclo[3.1.0] hexane-3-carboxamide] |
| < 1 µM | – | COc1cc(Br)nc(NC(=O)[C@@H]2[C@@H]3C[C@@H]3CN2C(=O)Cn2nc(C(C)=O)c3cc(-c4cnc(CO)nc4)cc(C)c32)c1 [Compound 73, (1R,2S,5S)-3-(2-(3-acetyl-5-(2-(hydroxymethyl)pyrimidin-5-yl)-7-methyl-11H-indazol-1-yl)acetyl)-N-(6-bromo-4-methoxypyridin-2-yl)-3-azabicyclo[3.1.0]hexane-2-carboxamide] |
| < 1 µM | – | CC(=O)c1nn(CC(=O)N2C[C@H]3C[C@H]3[C@H]2C(=O)Nc2nc(Br)ccc2C)c2c(C)cc(-c3cnc(CO)nc3)cc12 [Compound 61, (1R,2S,5S)-3-(2-(3-acetyl-5-(2-(hydroxymethyl)pyrimidin-5-yl)-7-methyl-11H-indazol-1-yl)acetyl)-N-(6-bromo-3-methylpyridin-2-yl)-3-azabicyclo[3.1.0]hexane-2-carboxamide] |
| < 1 µM | – | CC(=O)c1cn(CC(=O)N2[C@H](C(=O)Nc3nc(C(F)(F)F)ccc3C)C[C@@]3(C)C[C@@H]23)c2c(C)cc(-c3cnc(C)c(C)n3)cc12 [Compound 222, (1R,3S,5R)-2-(2-(3-acetyl-5-(5,6-dimethylpyrazin-2-yl)-7-methyl-1H-indol-1-yl)acetyl)-5-methyl-N-(3-methyl-6-(trifluoromethyl)pyridin-2-yl)-2-azabicyclo[3.1.0]hexane-3-carboxamide] |
| – | < 1 µM | CC(=O)c1nn(CC(=O)N2[C@H](C(=O)Nc3cccc(C(F)(F)F)c3F)C[C@@]3(C)C[C@@H]23)c2ccc(-c3cnc4cc(C)nn4c3)cc12 [Compound 25, (1R,3S,5R)-2-(2-(3-Acetyl-5-(2-methylpyrazolol[1,5-A]pyrimidin-6-yl)-1H-indazol-1-yl)acetyl)-N-(2-fluoro-3-(trifluoromethyl)phenyl)-5-methyl-2-azabicyclo[3.1.0]hexane-3-carboxamide] |
| 1 to 10 µM | – | CC(=O)c1cn(CC(=O)N2[C@H](C(=O)Nc3cncc(Br)n3)C[C@@]3(C)C[C@@H]23)c2c(C)cc(-c3cnc(CF)nc3)cc12 [Compound 218, (1R,3S,5R)-2-(2-(3-acetyl-5-(2-(fluoromethyl)pyrimidin-5-yl)-7-methyl-1H-indol-1-yl)acetyl)-N-(6-bromopyrazin-2-yl)-5-methyl-2-azabicyclo[3.1.0]hexane-3-carboxamide] |
